IC50 data for 31 molecules are collected here from patent US20240299385A1 (ReWind Therapeutics NV, priority 2021, published 2024).

Molecules are shown by their SMILES. Where only a bound is given, the exact number is not on record here.

T1 sequence (Q13304 whole entry): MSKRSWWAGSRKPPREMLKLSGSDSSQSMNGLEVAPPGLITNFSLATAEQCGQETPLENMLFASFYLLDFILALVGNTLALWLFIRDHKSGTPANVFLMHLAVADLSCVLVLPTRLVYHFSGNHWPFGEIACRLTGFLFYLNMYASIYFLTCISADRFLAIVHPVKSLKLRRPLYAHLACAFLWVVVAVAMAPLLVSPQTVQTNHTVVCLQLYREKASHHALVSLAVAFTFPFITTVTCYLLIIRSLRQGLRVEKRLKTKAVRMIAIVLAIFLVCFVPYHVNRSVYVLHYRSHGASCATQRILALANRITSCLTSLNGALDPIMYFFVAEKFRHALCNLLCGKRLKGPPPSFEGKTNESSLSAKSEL

This assay concerns the target T1, human GPR17 receptor (Homo sapiens, UniProt Q13304).
T1 construct: host or cells: HEK-293
Briefly: Calcium mobilization functional assay (Fluo-8, FLIPR TETRA) in HEK-293 hGPR17 (Gα-q assay). Format: cell-based. Particulars: antagonism of MDL29,951 (~EC80) induced Ca2+ signal; cell line (HEK-293 hGPR17 or HEK-293 Suchi5 hGPR17) not given. A digest of the protocol:
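Fluo-8-loaded HEK-293 hGPR17 cells (60 min dye loading, room temperature) were preincubated with compound for twenty minutes, then challenged with agonist MDL29,951 at ~EC80, 500 nM. Intracellular calcium release via Gα-q was recorded as FLIPR fluorescence for a further 2 minutes; compounds tested in duplicate.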
(Calcium flux is commonly read through the fluorescence of an indicator in the cells.)
As to `O=S(=O)(Nc1cc(F)c(C(F)(F)F)cc1F)c1c[nH]c(-c2ccccn2)c1` [Cpd 124, N-[2,5-difluoro-4-(trifluoromethyl)phenyl]-5-(2-pyridyl)-1H-pyrrole-3-sulfonamide], the IC50 is < 0.5 µM.
In the case of `O=S(=O)(Nc1cccc(F)c1)c1c[nH]c(-c2ccccn2)c1` [Cpd 125, N-(3-fluorophenyl)-5-(2-pyridyl)-1H-pyrrole-3-sulfonamide], the IC50 lay within 5 to 50 µM.
Turning to `Cc1nc(Cl)ccc1NS(=O)(=O)c1c[nH]c(-c2ccccc2)c1` [Cpd 126, N-(6-chloro-2-methyl-3-pyridyl)-5-phenyl-1H-pyrrole-3-sulfonamide], the IC50 fell in the range of 0.5 to 5 µM.
On to `Cc1ccc(NS(=O)(=O)c2c[nH]c(-c3ccccc3)c2)c(Cl)n1` [Cpd 127, N-(2-chloro-6-methyl-3-pyridyl)-5-phenyl-1H-pyrrole-3-sulfonamide], for which the 50% inhibitory concentration (IC50) lay in the range of 5 to 50 µM.
In the case of `COc1nc(C)ccc1NS(=O)(=O)c1c[nH]c(-c2ccccc2)c1` [Cpd 128, N-(2-methoxy-6-methyl-3-pyridyl)-5-phenyl-1H-pyrrole-3-sulfonamide], the IC50 fell in the range of 5 to 50 µM.
Turning to `Cc1ccnc(C)c1NS(=O)(=O)c1c[nH]c(-c2ccccc2)c1` [Cpd 129, N-(2,4-dimethyl-3-pyridyl)-5-phenyl-1H-pyrrole-3-sulfonamide], the IC50 was 0.5 to 5 µM.
For the molecule `COCCOc1ccc(NS(=O)(=O)c2c[nH]c(-c3ccccc3F)c2)c(F)c1` [Cpd 130, N-[2-fluoro-4-(2-methoxyethoxy)phenyl]-5-(2-fluorophenyl)-1H-pyrrole-3-sulfonamide], the IC50 is 5 to 50 µM.
In the case of `O=S(=O)(Nc1cc(F)c(F)cc1F)c1c[nH]c(-c2c(F)cccc2F)c1` [Cpd 131, 5-(2,6-difluorophenyl)-N-(2,4,5-trifluorophenyl)-1H-pyrrole-3-sulfonamide], the IC50 fell in the range of 0.5 to 5 µM.
`O=S(=O)(Nc1cc(F)c(C(F)(F)F)cc1F)c1c[nH]c(C2CCCC2)c1` [Cpd 132, 5-cyclopentyl-N-[2,5-difluoro-4-(trifluoromethyl)phenyl]-1H-pyrrole-3-sulfonamide]: the IC50 lay in the range of 0.5 to 5 µM.
For the molecule `O=S(=O)(Nc1ncc(F)cc1F)c1c[nH]c(-c2ccccc2F)c1` [Cpd 133, N-(3,5-difluoro-2-pyridyl)-5-(2-fluorophenyl)-1H-pyrrole-3-sulfonamide], the IC50 lay in the range of 5 to 50 µM.
Under `COc1cc(Cl)cnc1NS(=O)(=O)c1c[nH]c(-c2ccccc2)c1` [Cpd 134, N-(5-chloro-3-methoxy-2-pyridyl)-5-phenyl-1H-pyrrole-3-sulfonamide] stands 0.5 to 5 µM; under `Cc1nc(C(F)(F)F)ccc1NS(=O)(=O)c1c[nH]c(-c2ccccc2)c1` [Cpd 135, N-[2-methyl-6-(trifluoromethyl)-3-pyridyl]-5-phenyl-1H-pyrrole-3-sulfonamide], 0.5 to 5 µM; under `Cc1cnc(NS(=O)(=O)c2c[nH]c(-c3ccccc3)c2)c(F)c1` [Cpd 136, N-(3-fluoro-5-methyl-2-pyridyl)-5-phenyl-1H-pyrrole-3-sulfonamide], 0.5 to 5 µM.
Turning to `O=S(=O)(Nc1cc(F)c(F)cc1F)c1c[nH]c(-c2ccccc2)c1` [Cpd 137, 5-phenyl-N-(2,4,5-trifluorophenyl)-1H-pyrrole-3-sulfonamide], the IC50 lay in the range of 0.5 to 5 µM.
For `O=S(=O)(Nc1ccc(C(F)(F)F)cn1)c1c[nH]c(-c2ccccc2)c1` [Cpd 138, 5-phenyl-N-[5-(trifluoromethyl)-2-pyridyl]-1H-pyrrole-3-sulfonamide], the IC50 lay in the range of 5 to 50 µM.
Turning to `O=S(=O)(Nc1cc(C(F)(F)F)ccn1)c1c[nH]c(-c2ccccc2)c1` [Cpd 139, 5-phenyl-N-[4-(trifluoromethyl)-2-pyridyl]-1H-pyrrole-3-sulfonamide], the IC50 lay in the range of 0.5 to 5 µM.
As to `O=S(=O)(Nc1ncc(C(F)(F)F)cc1F)c1c[nH]c(-c2ccccc2)c1` [Cpd 140, N-[3-fluoro-5-(trifluoromethyl)-2-pyridyl]-5-phenyl-1H-pyrrole-3-sulfonamide], the IC50 lay within 0.5 to 5 µM.
With `O=S(=O)(Nc1cccc2c1OC(F)(F)O2)c1c[nH]c(-c2ccccc2)c1` [Cpd 141, N-(2,2-difluoro-1,3-benzodioxol-4-yl)-5-phenyl-1H-pyrrole-3-sulfonamide] the figure was 0.5 to 5 µM; with `O=S(=O)(Nc1cnc(Cl)cc1F)c1c[nH]c(-c2ccccc2F)c1` [Cpd 142, N-(6-chloro-4-fluoro-3-pyridyl)-5-(2-fluorophenyl)-1H-pyrrole-3-sulfonamide], 0.5 to 5 µM; with `O=S(=O)(Nc1ccc(OC(F)(F)F)cc1F)c1c[nH]c(-c2ccccc2)c1` [Cpd 143, N-[2-fluoro-4-(trifluoromethoxy)phenyl]-5-phenyl-1H-pyrrole-3-sulfonamide], 0.5 to 5 µM.
For `COc1cc(C(F)(F)F)ccc1NS(=O)(=O)c1c[nH]c(-c2ccccc2)c1` [Cpd 144, N-[2-methoxy-4-(trifluoromethyl)phenyl]-5-phenyl-1H-pyrrole-3-sulfonamide], the IC50 was in the range of 5 to 50 µM.
Consider `O=S(=O)(Nc1cc(F)c(Cl)cc1F)c1c[nH]c(-c2ccccc2)c1` [Cpd 145, N-(4-chloro-2,5-difluoro-phenyl)-5-phenyl-1H-pyrrole-3-sulfonamide], for which the IC50 fell in the range of 0.5 to 5 µM.
Take `O=S(=O)(Nc1cc(Cl)ncc1F)c1c[nH]c(-c2ccccc2)c1` [Cpd 146, N-(2-chloro-5-fluoro-4-pyridyl)-5-phenyl-1H-pyrrole-3-sulfonamide]: the IC50 lay within 5 to 50 µM.
Under `COc1nc(C(F)(F)F)ccc1NS(=O)(=O)c1c[nH]c(-c2ccccc2)c1` [Cpd 147, N-[2-methoxy-6-(trifluoromethyl)-3-pyridyl]-5-phenyl-1H-pyrrole-3-sulfonamide] stands 0.5 to 5 µM; under `O=S(=O)(Nc1cc(F)c(C(F)(F)F)cc1F)c1c[nH]c(-c2ncccc2F)c1` [Cpd 148, N-(2,5-difluoro-4-(trifluoromethyl)phenyl)-5-(3-fluoropyridin-2-yl)-1H-pyrrole-3-sulfonamide], < 0.5 µM.
Under `O=S(=O)(Nc1cccc2c1OCO2)c1c[nH]c(-c2ccccn2)c1` [Cpd 149, N-(1,3-benzodioxol-4-yl)-5-(2-pyridyl)-1H-pyrrole-3-sulfonamide] stands 0.5 to 5 µM; under `O=S(=O)(Nc1cc(F)c(C(F)(F)F)cc1F)c1c[nH]c(-c2ncccn2)c1` [Cpd 150, N-[2,5-difluoro-4-(trifluoromethyl)phenyl]-5-pyrimidin-2-yl-1H-pyrrole-3-sulfonamide], 0.5 to 5 µM; under `O=S(=O)(Nc1ccc(F)cc1F)c1c[nH]cc1Cc1ccccc1` [Cpd 151, 4-benzyl-N-(2,4-difluorophenyl)-1H-pyrrole-3-sulfonamide], 5 to 50 µM.
As to `O=S(=O)(Nc1ccc(C(F)(F)F)nc1)c1c[nH]cc1Cc1ccccc1` [Cpd 152, 4-benzyl-N-[6-(trifluoromethyl)-3-pyridyl]-1H-pyrrole-3-sulfonamide], the half-inhibitory concentration (IC50) lay in the range of 5 to 50 µM.
For `O=S(=O)(Nc1ccc(Cl)cc1F)c1c[nH]cc1Cc1ccccc1` [Cpd 153, 4-benzyl-N-(4-chloro-2-fluoro-phenyl)-1H-pyrrole-3-sulfonamide], the IC50 was in the range of 5 to 50 µM.
For the molecule `COc1cc(C(F)(F)F)ccc1NS(=O)(=O)c1c[nH]c(-c2ccccn2)c1` [Cpd 154, N-[2-methoxy-4-(trifluoromethyl)phenyl]-5-(2-pyridyl)-1H-pyrrole-3-sulfonamide], the IC50 lay in the range of 0.5 to 5 µM.

The term IC50 denotes the point on the concentration scale where inhibition reaches its midpoint.
